In PMC8779255, “Determining the Anticancer Activity of Sphingosine Kinase Inhibitors Containing Heteroatoms in Their Tail Structure” (Pharmaceutics, 2022):

Columns and labels:
[1] = test system: AKT and ERK phosphorylation in HCT116 cells; assay: Western blotting of pAKT and pERK; type: cell-based, human; details: HCT116, 20 µM
Description: (§1) The cell lysate was prepared after successive treatment using mammalian protein extraction buffer (Organic buffer + 10 mM NaCl + detergent pH 7.5) mixed with 1% protease/phosphatase inhibitor cocktail; protein was quantified with BCA assay, boiled at 95 °C for 10 min by adding sample loading buffer, separated using SDS-PAGE, and transferred into methanol-activated PVDF membrane. Primary antibodies were probed overnight in PVDF membrane at 4 °C and […] with subsequent HRP anti-mouse and anti-rabbit secondary antibodies at room temperature. Then, membranes were washed with TBST buffer, and images were detected by Amersham Imager 680 (GE Healthcare; Leiden, WZ, The Netherlands) using ECL solution. Band intensities were analyzed and quantified using Image J software (version 1.53i).

[2] = test system: PARP, caspase-3, Bcl-2, BAX in HCT116 cells; assay: Western blotting of apoptotic pathway-related proteins; type: cell-based, human
Description: as §1

[3] = In vitro metabolic stability in liver microsomes
Description: Microsome incubation was measured in triplicate in a 1.5 mL Eppendorf tube with 0.1 M potassium phosphate buffer (pH 7.4). […] It has a final volume of 100 mL in the presence of an NADPH regeneration system. In the final incubation mixture, 0.5 mg/mL HLM, 0.1 M potassium phosphate buffer (pH 7.4), and NADPH regeneration system (1 mM NADPH, 10 mM MgCl2) were included. In the pre-incubation mixture, HLM was added, and the mixture was run in a shaking incubator at approximately 350 rpm and 37 °C for 5 min under a Thermomixer (Eppendorf, Hamburg, Germany). Reactions were initiated by the addition of 1 mM NADPH and then quenched by the addition of 40 μL of ice-cold acetonitrile containing 10 μM chlorpropamide (CPP) as an internal standard at 0 and 30 min. After quenching, centrifugation of the incubation mixture was performed at 15,000× g for 5 min at 4 °C. An aliquot of 2 µL of the supernatant was injected into the LC-MS/MS system. The LC-MS/MS system was Xcalibur version 1.1.1 (Thermo Fisher Scientific Inc., Waltham, MA, USA).

SK1 in HCT116 cells = assay: Western blotting of SK1 protein expression; type: cell-based, human; details: HCT116, 10 and 20 µM, 24 h, vs control cells
Description: as §1

SMILES: CCCCCCCOc1ccc(CCN2CCN(CCO)CC2)cc1 [Compound 10, 2-(4-(4-(Heptyloxy)phenethyl)piperazin-1-yl)ethanol]
- phosphorylation of AKT and ERK [1]: significantly reduced phosphorylation of AKT and ERK
- expression of antiapoptotic Bcl-2 protein ([2]; HCT116, 10 and 20 µM): decreased the expression of antiapoptotic Bcl-2 protein
- expression of proapoptotic protein BAX ([2]; HCT116, 10 and 20 µM): increased the expression of proapoptotic protein BAX
- cleavage of caspase-3 ([2]; HCT116, 10 and 20 µM, vs nontreated control): effectively increased the cleavage
- cleaved PARP level ([2]; HCT116, vs nontreated groups): increased cleaved PARP level
- liver microsomal stability, Human (%) ([3]; % remaining after 30 min, 0.5 mg/mL microsomes, NADPH): 70.3%
- liver microsomal stability (in words) ([3]; human): stable
- SK1 protein expression level (SK1 in HCT116 cells): does not affect
